In patent publication US7192924B2, “Corticotropin releasing factor 2 receptor agonists” (priority 2002, dated 2007):
Peptide text beside a SMILES is read from it.

Tests used:
[1] = target: T1, CRF2R (Homo sapiens, UniProt Q13324); assay: CRF2R agonist activity (EC50, Emax), called comparative CRF binding; type: cell-based; conditions: read-out: CRF2R EC50
T1 sequence (Q13324 1-411): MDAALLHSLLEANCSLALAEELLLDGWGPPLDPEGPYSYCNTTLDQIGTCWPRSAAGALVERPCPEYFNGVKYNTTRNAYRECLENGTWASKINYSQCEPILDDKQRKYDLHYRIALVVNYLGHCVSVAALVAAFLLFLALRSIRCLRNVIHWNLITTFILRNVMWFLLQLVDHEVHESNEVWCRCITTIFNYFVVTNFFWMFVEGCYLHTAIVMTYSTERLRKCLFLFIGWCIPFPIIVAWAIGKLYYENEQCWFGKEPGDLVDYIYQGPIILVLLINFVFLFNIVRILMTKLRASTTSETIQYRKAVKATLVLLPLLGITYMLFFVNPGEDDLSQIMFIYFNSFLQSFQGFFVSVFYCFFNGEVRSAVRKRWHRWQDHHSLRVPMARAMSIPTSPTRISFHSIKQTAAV
Summary of the method: (§1)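 Agonism is judged from increased cAMP, measured either directly in lysates or through reporter genes under a cAMP responsive element. Cells or membranes express only the receptor of interest, and vehicle-treated cells serve as control.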

[2] = target: T2, CRF1R (Homo sapiens, UniProt P34998); assay: CRF1R agonist activity (EC50, Emax), called comparative CRF binding; type: cell-based; conditions: read-out: CRF1R EC50
T2 sequence (P34998 24-415): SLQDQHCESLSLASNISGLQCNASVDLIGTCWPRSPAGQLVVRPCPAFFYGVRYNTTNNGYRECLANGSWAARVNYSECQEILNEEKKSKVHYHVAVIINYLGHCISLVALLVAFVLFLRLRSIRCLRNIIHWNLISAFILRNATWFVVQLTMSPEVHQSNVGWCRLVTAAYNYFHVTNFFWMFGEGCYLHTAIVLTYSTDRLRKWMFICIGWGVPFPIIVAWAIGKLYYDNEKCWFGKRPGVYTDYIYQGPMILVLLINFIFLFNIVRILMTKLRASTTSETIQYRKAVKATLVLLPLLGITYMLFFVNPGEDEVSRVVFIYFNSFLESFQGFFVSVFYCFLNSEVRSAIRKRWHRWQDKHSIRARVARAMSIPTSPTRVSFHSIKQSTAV
Summary of the method: as §1

SMILES | EC50 [1] [nM] | EC50 [2] [nM]
CC[C@H](C)[C@H](N)C(=O)N[C@H](C(=O)N[C@@H](CC(C)C)C(=O)N[C@@H](CO)C(=O)N[C@@H](CC(C)C)C(=O)N[C@@H](CC(=O)O)C(=O)N[C@H](C(=O)N1CCC[C@H]1C(=O)N[C@H](C(=O)NCC(=O)N[C@@H](CC(C)C)C(=O)N[C@@H](CC(C)C)C(=O)N[C@@H](CCC(N)=O)C(=O)N[C@H](C(=O)N[C@@H](CC(C)C)C(=O)N[C@@H](CC(C)C)C(=O)N[C@@H](CCC(=O)O)C(=O)N[C@@H](CCC(N)=O)C(=O)N[C@@H](CCC(=O)O)C(=O)N[C@@H](CCCCN)C(=O)N[C@@H](CCC(N)=O)C(=O)N[C@@H](CCC(=O)O)C(=O)N[C@@H](CCCCN)C(=O)N[C@@H](CCC(=O)O)C(=O)N[C@@H](CCCCN)C(=O)N[C@@H](CCC(N)=O)C(=O)N[C@@H](CCC(N)=O)C(=O)N[C@@H](C)C(=O)N[C@H](C(=O)N[C@H](C(=O)N[C@@H](CC(N)=O)C(=O)N[C@@H](C)C(=O)N[C@@H](CCCNC(=N)N)C(=O)N[C@H](C(=O)N[C@@H](CC(C)C)C(=O)N[C@@H](C)C(=O)N[C@@H](CCCNC(=N)N)C(=O)N[C@H](C(N)=O)C(C)C)[C@@H](C)CC)[C@@H](C)O)[C@@H](C)O)[C@@H](C)CC)[C@@H](C)CC)C(C)C)C(C)C [compound 167] (H-IVLSLDVPIGLLQILLEQEKQEKEKQQATTNARILARV-NH2; N-terminus assumed) | 13 | ≥ 1000
CC[C@H](C)[C@H](NC(=O)[C@H](C)NC(=O)[C@H](CC(N)=O)NC(=O)[C@H](CCC(N)=O)NC(=O)[C@H](CCC(=O)O)NC(=O)[C@H](C)NC(=O)[C@H](CCCNC(=N)N)NC(=O)[C@H](CCC(=O)O)NC(=O)[C@H](CCCNC(=N)N)NC(=O)[C@H](CCC(N)=O)NC(=O)[C@H](CO)NC(=O)[C@H](CCC(N)=O)NC(=O)[C@@H](NC(=O)[C@H](CCCNC(=N)N)NC(=O)[C@H](C)NC(=O)[C@H](CC(C)C)NC(=O)[C@H](CCC(=O)O)NC(=O)[C@H](CC(C)C)NC(=O)[C@H](CC(C)C)NC(=O)[C@@H](NC(=O)[C@H](CCCNC(=N)N)NC(=O)[C@H](CC(C)C)NC(=O)[C@H](CC(C)C)NC(=O)[C@H](CC(C)C)NC(=O)[C@H](CC(C)C)NC(=O)[C@@H]1CCCN1C(=O)[C@H](CC(C)C)NC(=O)[C@H](CC(=O)O)NC(=O)[C@@H](NC(=O)[C@H](CO)NC(=O)[C@H](CC(C)C)NC(=O)[C@H](CO)NC(=O)[C@@H]1CCCN1C(=O)[C@H](CC(N)=O)NC(=O)[C@@H](N)CC(=O)O)[C@@H](C)CC)[C@@H](C)O)[C@@H](C)O)C(=O)N[C@H](C(=O)N[C@@H](Cc1ccccc1)C(=O)N[C@@H](C)C(=O)N[C@@H](CO)C(=O)N[C@H](C(N)=O)C(C)C)[C@@H](C)CC [compound 174] (H-DNPSLSIDLPLLLLRTLLELARTQSQRERAEQNAIIFASV-NH2; N-terminus assumed) | 4.42 | ≥ 1000
CC[C@H](C)[C@H](NC(=O)[C@H](C)NC(=O)[C@H](CC(N)=O)NC(=O)[C@H](CCC(N)=O)NC(=O)[C@H](CCC(=O)O)NC(=O)[C@H](C)NC(=O)[C@H](CCCNC(=N)N)NC(=O)[C@H](CCC(=O)O)NC(=O)[C@H](CCCNC(=N)N)NC(=O)[C@H](CCC(N)=O)NC(=O)[C@H](CO)NC(=O)[C@H](CCC(N)=O)NC(=O)[C@@H](NC(=O)[C@H](CCCNC(=N)N)NC(=O)[C@H](C)NC(=O)[C@H](CC(C)C)NC(=O)[C@H](CCC(=O)O)NC(=O)[C@H](CC(C)C)NC(=O)[C@H](CC(C)C)NC(=O)[C@@H](NC(=O)[C@H](CCCNC(=N)N)NC(=O)[C@H](CC(C)C)NC(=O)[C@H](CC(C)C)NC(=O)[C@H](CCC(N)=O)NC(=O)[C@H](CC(C)C)NC(=O)[C@@H]1CCCN1C(=O)[C@H](CC(C)C)NC(=O)[C@H](CC(=O)O)NC(=O)[C@@H](NC(=O)[C@H](CO)NC(=O)[C@H](CC(C)C)NC(=O)[C@H](CO)NC(=O)[C@@H]1CCCN1C(=O)[C@H](CC(N)=O)NC(=O)[C@@H](N)CC(=O)O)[C@@H](C)CC)[C@@H](C)O)[C@@H](C)O)C(=O)N[C@H](C(=O)N[C@@H](Cc1ccccc1)C(=O)N[C@@H](C)C(=O)N[C@@H](CO)C(=O)N[C@H](C(N)=O)C(C)C)[C@@H](C)CC [compound 176] (H-DNPSLSIDLPLQLLRTLLELARTQSQRERAEQNAIIFASV-NH2; N-terminus assumed) | 12.6 | ≥ 1000
CC[C@H](C)[C@H](NC(=O)[C@H](C)NC(=O)[C@H](CC(N)=O)NC(=O)[C@H](CCC(N)=O)NC(=O)[C@H](CCC(=O)O)NC(=O)[C@H](C)NC(=O)[C@H](CCCNC(=N)N)NC(=O)[C@H](CCC(=O)O)NC(=O)[C@H](CCCNC(=N)N)NC(=O)[C@H](CCC(N)=O)NC(=O)[C@H](CO)NC(=O)[C@H](CCC(N)=O)NC(=O)[C@@H](NC(=O)[C@H](CCCNC(=N)N)NC(=O)[C@H](C)NC(=O)[C@H](CC(C)C)NC(=O)[C@H](CCC(=O)O)NC(=O)[C@H](CC(C)C)NC(=O)[C@H](CC(C)C)NC(=O)[C@@H](NC(=O)[C@H](CCCNC(=N)N)NC(=O)[C@H](CC(C)C)NC(=O)[C@H](CC(C)C)NC(=O)[C@H](Cc1ccc(O)cc1)NC(=O)[C@H](CC(C)C)NC(=O)[C@@H]1CCCN1C(=O)[C@H](CC(C)C)NC(=O)[C@H](CC(=O)O)NC(=O)[C@@H](NC(=O)[C@H](CO)NC(=O)[C@H](CC(C)C)NC(=O)[C@H](CO)NC(=O)[C@@H]1CCCN1C(=O)[C@H](CC(N)=O)NC(=O)[C@@H](N)CC(=O)O)[C@@H](C)CC)[C@@H](C)O)[C@@H](C)O)C(=O)N[C@H](C(=O)N[C@@H](Cc1ccccc1)C(=O)N[C@@H](C)C(=O)N[C@@H](CO)C(=O)N[C@H](C(N)=O)C(C)C)[C@@H](C)CC [compound 177] (H-DNPSLSIDLPLYLLRTLLELARTQSQRERAEQNAIIFASV-NH2; N-terminus assumed) | 5.63 | 613
CC[C@H](C)[C@H](NC(=O)[C@H](C)NC(=O)[C@H](CC(N)=O)NC(=O)[C@H](CCC(N)=O)NC(=O)[C@H](CCC(=O)O)NC(=O)[C@H](C)NC(=O)[C@H](CCCNC(=N)N)NC(=O)[C@H](CCC(=O)O)NC(=O)[C@H](CCCNC(=N)N)NC(=O)[C@H](CCC(N)=O)NC(=O)[C@H](CO)NC(=O)[C@H](CCC(N)=O)NC(=O)[C@@H](NC(=O)[C@H](CCCNC(=N)N)NC(=O)[C@H](C)NC(=O)[C@H](CC(C)C)NC(=O)[C@H](CCC(=O)O)NC(=O)[C@H](CC(C)C)NC(=O)[C@H](CC(C)C)NC(=O)[C@@H](NC(=O)[C@H](CCCNC(=N)N)NC(=O)[C@H](CC(C)C)NC(=O)[C@H](CC(C)C)NC(=O)[C@H](Cc1ccccc1)NC(=O)[C@H](CC(C)C)NC(=O)[C@@H]1CCCN1C(=O)[C@H](CC(C)C)NC(=O)[C@H](CC(=O)O)NC(=O)[C@@H](NC(=O)[C@H](CO)NC(=O)[C@H](CC(C)C)NC(=O)[C@H](CO)NC(=O)[C@@H]1CCCN1C(=O)[C@H](CC(N)=O)NC(=O)[C@@H](N)CC(=O)O)[C@@H](C)CC)[C@@H](C)O)[C@@H](C)O)C(=O)N[C@H](C(=O)N[C@@H](Cc1ccccc1)C(=O)N[C@@H](C)C(=O)N[C@@H](CO)C(=O)N[C@H](C(N)=O)C(C)C)[C@@H](C)CC [compound 178] (H-DNPSLSIDLPLFLLRTLLELARTQSQRERAEQNAIIFASV-NH2; N-terminus assumed) | 5.17 | ≥ 1000
CC[C@H](C)[C@H](NC(=O)[C@H](C)NC(=O)[C@H](CC(N)=O)NC(=O)[C@H](CCC(N)=O)NC(=O)[C@H](CCC(=O)O)NC(=O)[C@H](C)NC(=O)[C@H](CCCNC(=N)N)NC(=O)[C@H](CCC(=O)O)NC(=O)[C@H](CCCNC(=N)N)NC(=O)[C@H](CCC(N)=O)NC(=O)[C@H](CO)NC(=O)[C@H](CCC(N)=O)NC(=O)[C@@H](NC(=O)[C@H](CCCNC(=N)N)NC(=O)[C@H](C)NC(=O)[C@H](CC(C)C)NC(=O)[C@H](CCC(=O)O)NC(=O)[C@H](CC(C)C)NC(=O)[C@H](CC(C)C)NC(=O)[C@@H](NC(=O)[C@H](CCCNC(=N)N)NC(=O)[C@H](CC(C)C)NC(=O)[C@H](CC(C)C)NC(=O)[C@H](Cc1c[nH]cn1)NC(=O)[C@H](CC(C)C)NC(=O)[C@@H]1CCCN1C(=O)[C@H](CC(C)C)NC(=O)[C@H](CC(=O)O)NC(=O)[C@@H](NC(=O)[C@H](CO)NC(=O)[C@H](CC(C)C)NC(=O)[C@H](CO)NC(=O)[C@@H]1CCCN1C(=O)[C@H](CC(N)=O)NC(=O)[C@@H](N)CC(=O)O)[C@@H](C)CC)[C@@H](C)O)[C@@H](C)O)C(=O)N[C@H](C(=O)N[C@@H](Cc1ccccc1)C(=O)N[C@@H](C)C(=O)N[C@@H](CO)C(=O)N[C@H](C(N)=O)C(C)C)[C@@H](C)CC [compound 179] (H-DNPSLSIDLPLHLLRTLLELARTQSQRERAEQNAIIFASV-NH2; N-terminus assumed) | 10.2 | 477
